According to patent publication US4882349A, “Pyrrolacetic amides having antiinflammatory activity” (priority 1982, dated 1989):

Tests used:
[1] = system: mucus secreted by the respiratory airway; assay: antisecretory activity, respiratory mucus secretion; assay type: in vivo, albino male New Zealand rabbits; conditions: vs control group
Protocol: The experiment was carried out in accordance with the method described by Y. Kase (Folia Pharmacol. Jap. 73: 605, 1977) for the purpose of investigating whether or not the compounds under examination determine changes in the volume of the mucus secreted by the respiratory airway. Groups of four albino male New Zealand rabbits (mean weight: 2.5 kg) were used for testing each dose per single group. The animals were anesthetized with urethane (1.1 g/ks b.w.) via the intraperitoneal route and a Y cannula was inserted into the trachea. In order to stimulate mucous secretion a humidifier was connected to the cannula permitting the animals to spontaneously breathe air with 100% humidity at a constant temperature of 39° C. The secreted mucus was collected through another opening in the cannula and measured at three and six hours after administration of the compounds under examination or of the vehicle alone administered in the order of […] (controls). Calculation of the increase or decrease in mucous secretion was based upon the percentage differences between the groups treated with the compounds under examination and the control group. Table VII gives the percentage differences in mucous secretion, and the tested compounds with relative doses and routes of administration.

[2] = system: phenyl-p-quinone-induced writhing (abdominal contractions); assay: phenylquinone-induced writhing test (analgesic activity), compound given 30 min before phenyl-p-quinone; assay type: in vivo, male Wistar rats
Protocol: Male Wistar rats weighing 110±5 g were caged for 10 days at 22±1° C. and given a balanced diet with free access to water. Twenty-four hours before the experiment the animals were randomized into groups of 10 and fasted for 14 hours but with free access to water. Each dose was tested in 3 groups of rats. Thirty minutes following administration either orally or parenterally of the products to be tested and the vehicle alone (0.5% carboxymethyl-cellulose in physiological saline) in the control animals, each rat was given 2 ml of a 5% absolute ethanol aqueous solution containing 0.36% of phenyl-p-quinone (Sigma Chemical Company) in order to provoke writhings. Fifteen minutes after administration of phenyl-p-quinone the number of contractions were counted for 20 minutes. The inhibiting effect of the compounds under examination on the abdominal contractions induced by phenyl-p-quinone was calculated by the following formula: % protection= [formula]
Table V lists the tested compounds, doses, routes of administration and their efficacy expressed as percentage of protection, taking into account that phenyl-p-quinone was administered thirty minutes after the compounds.

[3] = system: carrageenin-induced oedema; assay: carrageenin-induced oedema test (anti-inflammatory activity); assay type: in vivo, albino male Wistar rats
Protocol: This effect was evaluated by means of an experimental model reproducing acute inflammation: for this purpose the carrageenin- induced oedema test was employed following the method described by C.
Albino male Wistar rats weighing 140-160 g were caged for 10 days at 22±1° C. and given a balanced diet and water ad libitum. Eighteen hours before the experiment the animals were randomized into groups of ten and fasted but with free access to water. Each dose was tested in three groups of rats. Each compound was given either orally, by gavage, or parenterally--intraperitoneal injection--administering as follows:
controls: 0.5% carboxymethylcellulose suspension in physiological saline, 10 ml/kg
treated: suspension of the compounds to be tested in the same vehicle and at the same volume (10 ml/kg) used for the controls at the doses specified below.
One hour after administration of the compounds and vehicle, in order to provoke the oedema for determining the protective effect of the substances under examination, each rat received, by subcutaneous injection into the plantar surface of the left paw, 0.1 ml of 1% sterile carrageenin suspension.

[4] = system: cough provoked by mechanical stimulation of the tracheal bifurcation mucosa; assay: antitussive activity, mechanically provoked coughing; assay type: in vivo, albino Guinea-pigs; conditions: 1 h after administration
Protocol: The antitussive effect on albino Guinea-pigs weighing 300 g was evaluated using the method described by Y. Kase (Selected Pharmacological Testing Methods, p.363, Marcel Dekker Inc., New York, 1968). Each dose was tested in a group of animals with a Y cannula inserted into the trachea. In order to provoke coughing, the mucosa of the tracheal bifurcation was mechanically stimulated by insertion of a wild boar's hair through an opening in the cannula, while the other opening was connected to a kymograph to plot the amplitude and/or frequency. The reduction in the number of coughs was evaluated at one hour after administration of the compounds under examination by following the plottings for twenty minutes and comparing the response of the control animals.

COc1ccccc1OC(=O)CNC(=O)Cc1ccc(C(=O)c2ccc(C)cc2)n1C [Compound 1-d, 1-methyl-5-p-toluoylpyrrole-2-acetamidoacetic acid guaiacyl ester]
% difference in mucus secretion ([1]; 50 mg/Kg i.p., 3 h): -5%
% difference in mucus secretion ([1]; 50 mg/Kg i.p., 6 h): -5%
% difference in mucus secretion ([1]; 50 mg/Kg per os, 3 h): 0.0%
% difference in mucus secretion ([1]; 50 mg/Kg per os, 6 h): 0.0%
% difference in mucus secretion ([1]; 75 mg/Kg i.p., 3 h): -18%
% difference in mucus secretion ([1]; 75 mg/Kg i.p., 6 h): -15%
% difference in mucus secretion ([1]; 75 mg/Kg per os, 3 h): -15%
% difference in mucus secretion ([1]; 75 mg/Kg per os, 6 h): -10%
% difference in mucus secretion ([1]; 100 mg/Kg i.p., 3 h): -38%
% difference in mucus secretion ([1]; 100 mg/Kg i.p., 6 h): -30%
% difference in mucus secretion ([1]; 100 mg/Kg per os, 3 h): -32%
% difference in mucus secretion ([1]; 100 mg/Kg per os, 6 h): -27%
% Protection ([2]; 5 mg/Kg i.p.): 22.1%
% Protection ([2]; 5 mg/Kg per os): 29.1%
% Protection ([2]; 10 mg/Kg i.p.): 56.0%
% Protection ([2]; 10 mg/Kg per os): 53.4%
% Protection ([2]; 20 mg/Kg i.p.): 87.0%
% Protection ([2]; 20 mg/Kg per os): 80.2%
oedema % inhibition ([3]; 2.5 mg/Kg per os, 2 h): 50.0%
oedema % inhibition ([3]; 2.5 mg/Kg per os, 4 h): 34.6%
oedema % inhibition ([3]; 2.5 mg/Kg per os, 6 h): 23.1%
oedema % inhibition ([3]; 2.5 mg/Kg per os, 24 h): 0.0%
oedema % inhibition ([3]; 2.5 mg/Kg per os, 48 h): 0.0%
oedema % inhibition ([3]; 2.5 mg/Kg per os, 72 h): 0.0%
oedema % inhibition ([3]; 2.5 mg/Kg, Table IV (route not given), 2 h): 52.3%
oedema % inhibition ([3]; 2.5 mg/Kg, Table IV (route not given), 4 h): 37.0%
oedema % inhibition ([3]; 2.5 mg/Kg, Table IV (route not given), 6 h): 26.0%
oedema % inhibition ([3]; 2.5 mg/Kg, Table IV (route not given), 24 h): 14.0%
oedema % inhibition ([3]; 2.5 mg/Kg, Table IV (route not given), 48 h): 0.0%
oedema % inhibition ([3]; 2.5 mg/Kg, Table IV (route not given), 72 h): 0.0%
oedema % inhibition ([3]; 5 mg/Kg per os, 2 h): 51.4%
oedema % inhibition ([3]; 5 mg/Kg per os, 4 h): 38.8%
oedema % inhibition ([3]; 5 mg/Kg per os, 6 h): 24.0%
oedema % inhibition ([3]; 5 mg/Kg per os, 24 h): 10.0%
oedema % inhibition ([3]; 5 mg/Kg per os, 48 h): 10.0%
oedema % inhibition ([3]; 5 mg/Kg per os, 72 h): 6.0%
oedema % inhibition ([3]; 5 mg/Kg, Table IV (route not given), 2 h): 54.0%
oedema % inhibition ([3]; 5 mg/Kg, Table IV (route not given), 4 h): 40.0%
oedema % inhibition ([3]; 5 mg/Kg, Table IV (route not given), 6 h): 24.6%
oedema % inhibition ([3]; 5 mg/Kg, Table IV (route not given), 24 h): 10.1%
oedema % inhibition ([3]; 5 mg/Kg, Table IV (route not given), 48 h): 0.0%
oedema % inhibition ([3]; 5 mg/Kg, Table IV (route not given), 72 h): 0.0%
oedema % inhibition ([3]; 10 mg/Kg per os, 2 h): 61.5%
oedema % inhibition ([3]; 10 mg/Kg per os, 4 h): 41.2%
oedema % inhibition ([3]; 10 mg/Kg per os, 6 h): 34.9%
oedema % inhibition ([3]; 10 mg/Kg per os, 24 h): 12.6%
oedema % inhibition ([3]; 10 mg/Kg per os, 48 h): 14.0%
oedema % inhibition ([3]; 10 mg/Kg per os, 72 h): 9.0%
oedema % inhibition ([3]; 10 mg/Kg, Table IV (route not given), 2 h): 60.0%
oedema % inhibition ([3]; 10 mg/Kg, Table IV (route not given), 4 h): 46.9%
oedema % inhibition ([3]; 10 mg/Kg, Table IV (route not given), 6 h): 36.7%
oedema % inhibition ([3]; 10 mg/Kg, Table IV (route not given), 24 h): 16.5%
oedema % inhibition ([3]; 10 mg/Kg, Table IV (route not given), 48 h): 6.3%
oedema % inhibition ([3]; 10 mg/Kg, Table IV (route not given), 72 h): 0.0%
oedema % inhibition ([3]; 20 mg/Kg per os, 2 h): 62.1%
oedema % inhibition ([3]; 20 mg/Kg per os, 4 h): 48.7%
oedema % inhibition ([3]; 20 mg/Kg per os, 6 h): 32.8%
oedema % inhibition ([3]; 20 mg/Kg per os, 24 h): 26.6%
oedema % inhibition ([3]; 20 mg/Kg per os, 48 h): 25.9%
oedema % inhibition ([3]; 20 mg/Kg per os, 72 h): 3.3%
oedema % inhibition ([3]; 20 mg/Kg, Table IV (route not given), 2 h): 65.0%
oedema % inhibition ([3]; 20 mg/Kg, Table IV (route not given), 4 h): 50.4%
oedema % inhibition ([3]; 20 mg/Kg, Table IV (route not given), 6 h): 48.6%
oedema % inhibition ([3]; 20 mg/Kg, Table IV (route not given), 24 h): 23.5%
oedema % inhibition ([3]; 20 mg/Kg, Table IV (route not given), 48 h): 9.1%
oedema % inhibition ([3]; 20 mg/Kg, Table IV (route not given), 72 h): 8.4%
oedema % inhibition ([3]; 50 mg/Kg per os, 2 h): 66.9%
oedema % inhibition ([3]; 50 mg/Kg per os, 4 h): 66.8%
oedema % inhibition ([3]; 50 mg/Kg per os, 6 h): 57.8%
oedema % inhibition ([3]; 50 mg/Kg per os, 24 h): 30.9%
oedema % inhibition ([3]; 50 mg/Kg per os, 48 h): 36.3%
oedema % inhibition ([3]; 50 mg/Kg per os, 72 h): 38.6%
oedema % inhibition ([3]; 50 mg/Kg, Table IV (route not given), 2 h): 69.7%
oedema % inhibition ([3]; 50 mg/Kg, Table IV (route not given), 4 h): 74.0%
oedema % inhibition ([3]; 50 mg/Kg, Table IV (route not given), 6 h): 67.2%
oedema % inhibition ([3]; 50 mg/Kg, Table IV (route not given), 24 h): 34.5%
oedema % inhibition ([3]; 50 mg/Kg, Table IV (route not given), 48 h): 20.8%
oedema % inhibition ([3]; 50 mg/Kg, Table IV (route not given), 72 h): 15.3%
oedema % inhibition ([3]; 100 mg/Kg per os, 2 h): 68.0%
oedema % inhibition ([3]; 100 mg/Kg per os, 4 h): 74.0%
oedema % inhibition ([3]; 100 mg/Kg per os, 6 h): 67.5%
oedema % inhibition ([3]; 100 mg/Kg per os, 24 h): 40.3%
oedema % inhibition ([3]; 100 mg/Kg per os, 48 h): 38.0%
oedema % inhibition ([3]; 100 mg/Kg per os, 72 h): 33.0%
oedema % inhibition ([3]; 100 mg/Kg, Table IV (route not given), 2 h): 76.5%
oedema % inhibition ([3]; 100 mg/Kg, Table IV (route not given), 4 h): 79.5%
oedema % inhibition ([3]; 100 mg/Kg, Table IV (route not given), 6 h): 73.4%
oedema % inhibition ([3]; 100 mg/Kg, Table IV (route not given), 24 h): 42.4%
oedema % inhibition ([3]; 100 mg/Kg, Table IV (route not given), 48 h): 33.0%
oedema % inhibition ([3]; 100 mg/Kg, Table IV (route not given), 72 h): 31.6%
% inhibition, cough amplitude ([4]; 50 mg/Kg i.p.): 12%
% inhibition, cough frequency ([4]; 50 mg/Kg i.p.): 15%
% inhibition, cough amplitude ([4]; 50 mg/Kg per os): 10%
% inhibition, cough frequency ([4]; 50 mg/Kg per os): 18%
% inhibition, cough amplitude ([4]; 75 mg/Kg i.p.): 20%
% inhibition, cough frequency ([4]; 75 mg/Kg i.p.): 36%
% inhibition, cough amplitude ([4]; 75 mg/Kg per os): 22%
% inhibition, cough frequency ([4]; 75 mg/Kg per os): 29%
% inhibition, cough amplitude ([4]; 100 mg/Kg i.p.): 30%
% inhibition, cough frequency ([4]; 100 mg/Kg i.p.): 45%
% inhibition, cough amplitude ([4]; 100 mg/Kg per os): 30%
% inhibition, cough frequency ([4]; 100 mg/Kg per os): 49%
